Experimental data as given in PubChem BioAssay AID1963849 (Molecular Pharmacology Branch, DTP, NCI, 2024).

System: 299254-011-R-J1-PDC complex spheroid viability
Assay: Anticancer human tumor 299254-011-R-J1-PDC patient-derived melanoma cell line growth inhibition [POLQ]
Conditions: for IC50: curve of first compound; for viability, T/C: stronger effect = lower value
Method: Multicellular complex tumor spheroid response to Polymerase (POL) inhibitors (novobiocin, ART-558, RP6685) in combination with a variety of drugs and investigational agents in selected tumor cell lines
The POL inhibitors (novobiocin, ART-558, and RP6685) were evaluated both individually and in combination with standard of care and investigational anticancer small molecules within a complex spheroid model of solid tumors. . Complex spheroids include a stromal component modeled by human endothelial cells (HUVEC) and fibroblasts modeled by human mesenchymal stem cells (MSCs). The concentration ranges selected for each drug and investigational agent were based upon clinically achievable concentrations if the clinical Cmax of the agent was known.
Compounds. The drugs and investigational agents: novobiocin (NSC847541), ART-558 (NSC835418), RP-6685 (NSC848927), peposertib (NSC802822), ceralasertib (NSC780249), elimusertib (NSC800525), camonsertib (NSC841442), AZD-1390 (NSC803789), olaparib (NSC753686), talazoparib (NSC767125), rucaparib (NSC756644), sotorasib (NSC818433), MRTX-1133 (NSC836407), SN-38 (NSC673596), topotecan (NSC609699), epotoside (NSC141540), doxorubicin (NSC123127), gemcitabine (NSC613327), 5-fluorouracil (NSC19893), paclitaxel (NSC125973), vemurafenib (NSC761431), MSA-2 (NSC828583), SN-011 (NSC837082), adavosertib (NSC754352), prexasertib (NSC758257), carboplatin (NSC241240) and oxaliplatin (NSC266046), were obtained from the National Cancer Institute (NCI) Developmental Therapeutics Program Chemical Repository (21). The FDA-approved anticancer drug set is available from the Developmental Therapeutics Program at https://dtp.cancer.gov/organization/dscb/obtaining/. […] The stock solutions were prepared in dimethyl sulfoxide (DMSO, Sigma-Aldrich, St. Louis, MO, cat. D2650), except for the platinum compounds which were prepared in saline (Quality Biological, Gaithersburg, MD, cat. 114-055-101), at 800-fold the tested concentration and stored at -70 degrees C prior to their use. All drugs and investigational agents were tested over a range starting from a high concentration at or near the clinical Cmax and decreasing in half-log increments. If the clinical Cmax for an agent had not been determined, the highest concentration tested was 10 microM, except for SN-38, which was tested at a high concentration of 1 microM.
Cell Culture. All cells were maintained in an incubator at 37 degrees C and 5% CO2 with 95% humidity. The PDC lines were cultured according to standard operating procedures established by the NCI PDMR (https://pdmr.cancer.gov). Table 3 of the manuscript, lists the cell lines along with the number of the three cell types plated to form the mct-spheroids and media for tumor cell growth. After thawing, all PDC lines, except 997537-175-T-J1-PDC and 415267-285-R-J2-PDC, were cultured in Matrigel-coated flasks prepared with a working solution of 1X Ham's F-12 nutrient mix, without supplementation (Thermo Fisher Scientific, cat. 11765054), 100 U/mL penicillin-streptomycin (Thermo Fisher Scientific, cat. 15140122), and 2.5% Matrigel (Corning Inc., Corning, NY, cat. 354248) for the first three passages. The two PDC lines 997537-175-T-J1-PDC and 415267-285-R-J2-PDC were cultured on uncoated flasks. The 857933-349-R-J2-PDC line was cultured in 6C/Colon 1B media containing advanced DMEM/F-12 (Thermo Fisher Scientific, cat. 12634028), 10 mM HEPES (Thermo Fisher Scientific, cat. 15630080), 1X GlutaMAX supplement (Thermo Fisher Scientific, cat. 35050061), 0.1 mg/mL primocin (InvivoGen, San Diego, CA, cat. ant-pm-2), 10% defined fetal bovine serum, heat inactivated (HyClone Laboratories Inc., Logan, UT, cat. SH30070.03HI), 50% L-WRN conditioned media (ATCC, cat. CRL-3276), 1.25 mM N-Acetyl-L-cysteine (Sigma-Aldrich, cat. A9165), 10 mM nicotinamide (Sigma-Aldrich, cat. N0636), 1X B-27 supplement (Thermo Fisher Scientific, cat. 17504044), 1X N-2 supplement (Thermo Fisher Scientific, cat. […]
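Also: spheroids exposed to drugs for one week before measurement.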
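For viability, T/C in this document: percent viability relative to DMSO vehicle control taken as 100%.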

With Cn1ncnc1[C@H]1c2n[nH]c(=O)c3cc(F)cc(c23)N[C@@H]1c1ccc(F)cc1 + COC1C(OC(N)=O)C(O)C(Oc2ccc3c(O)c(NC(=O)c4ccc(O)c(CC=C(C)C)c4)c(=O)oc3c2C)OC1(C)C the IC50 (second compound 0.0316 µM) was > 100 nM, the IC50 (second compound 0.1 µM) was > 100 nM and the IC50 (second compound 0.316 µM) was > 100 nM. The IC50 (second compound 1 µM) was > 100 nM, the IC50 (second compound 3.16 µM) was > 100 nM and the IC50 (second compound 10 µM) was > 100 nM. It also gave a viability, T/C (second compound 0.0316 µM, first compound 0.000316 µM) of 106%, a viability, T/C (second compound 0.0316 µM, first compound 0.001 µM) of 84.4% and a viability, T/C (second compound 0.0316 µM, first compound 0.00316 µM) of 101%. The viability, T/C (second compound 0.0316 µM, first compound 0.01 µM) was 98.8%, the viability, T/C (second compound 0.0316 µM, first compound 0.0316 µM) was 97% and the viability, T/C (second compound 0.0316 µM, first compound 0.1 µM) was 98.1%. For the same molecule, the viability, T/C (second compound 0.1 µM, first compound 0.000316 µM) was 101%, the viability, T/C (second compound 0.1 µM, first compound 0.001 µM) was 91.3% and the viability, T/C (second compound 0.1 µM, first compound 0.00316 µM) was 105%. It also gave a viability, T/C (second compound 0.1 µM, first compound 0.01 µM) of 90.9%, a viability, T/C (second compound 0.1 µM, first compound 0.0316 µM) of 106% and a viability, T/C (second compound 0.1 µM, first compound 0.1 µM) of 87.6%. For the same molecule, the viability, T/C (second compound 0.316 µM, first compound 0.000316 µM) was 89.4%, the viability, T/C (second compound 0.316 µM, first compound 0.001 µM) was 94.6% and the viability, T/C (second compound 0.316 µM, first compound 0.00316 µM) was 101%. It also gave a viability, T/C (second compound 0.316 µM, first compound 0.01 µM) of 92%, a viability, T/C (second compound 0.316 µM, first compound 0.0316 µM) of 107% and a viability, T/C (second compound 0.316 µM, first compound 0.1 µM) of 96.2%. For the same molecule, the viability, T/C (second compound 1 µM, first compound 0.000316 µM) was 105%, the viability, T/C (second compound 1 µM, first compound 0.001 µM) was 111% and the viability, T/C (second compound 1 µM, first compound 0.00316 µM) was 102%. For the same molecule, the viability, T/C (second compound 1 µM, first compound 0.01 µM) was 118%, the viability, T/C (second compound 1 µM, first compound 0.0316 µM) was 96.5% and the viability, T/C (second compound 1 µM, first compound 0.1 µM) was 97.4%. For the same molecule, the viability, T/C (second compound 3.16 µM, first compound 0.000316 µM) was 99.7%, the viability, T/C (second compound 3.16 µM, first compound 0.001 µM) was 103% and the viability, T/C (second compound 3.16 µM, first compound 0.00316 µM) was 98.9%. The viability, T/C (second compound 3.16 µM, first compound 0.01 µM) was 93.2%, the viability, T/C (second compound 3.16 µM, first compound 0.0316 µM) was 103% and the viability, T/C (second compound 3.16 µM, first compound 0.1 µM) was 100%. The viability, T/C (second compound 10 µM, first compound 0.000316 µM) was 106%, the viability, T/C (second compound 10 µM, first compound 0.001 µM) was 105% and the viability, T/C (second compound 10 µM, first compound 0.00316 µM) was 115%. The viability, T/C (second compound 10 µM, first compound 0.01 µM) was 112%, the viability, T/C (second compound 10 µM, first compound 0.0316 µM) was 119% and the viability, T/C (second compound 10 µM, first compound 0.1 µM) was 99.6%.
